The source of these data is patent US8119628B2, “Pyrrolidine fused indolobenzadiazepine HCV NS5B inhibitors” (Bristol-Myers Squibb Company, priority 2008, dated 2012).

One test has as its target T1, HCV NS5B (Hepatitis C virus genotype 1b, UniProt Q9WMX2).
T1 construct: The protein was expressed with an 18 amino acid C-terminal truncation to enhance the solubility; made in house; host or cells: E. coli BL21(DE3)
Kind of test: Modified HCV NS5B RdRp enzyme assay (preincubation protocol). As to conditions: HCV NS5B RdRp genotype 1b. The format is biochemical. On the procedure: HCV NS5B RdRp cloning, expression, and purification. The cDNA encoding the NS5B protein of HCV, genotype 1b, was cloned into the pET21a expression vector. The protein was expressed with an 18 amino acid C-terminal truncation to enhance the solubility. The E. coli competent cell line BL21(DE3) was used for expression of the protein. Cultures were grown at 37° C. for ˜4 hours until the cultures reached an optical density of 2.0 at 600 nm. The cultures were cooled to 20° C. and induced with 1 mM IPTG. Fresh ampicillin was added to a final concentration of 50 μg/ml and the cells were grown overnight at 20° C.
Cell pellets (3 L) were lysed for purification to yield 15-24 […] of purified NS5B. The lysis buffer consisted of 20 mM Tris-HCl, pH 7.4, 500 mM NaCl, 0.5% triton X-100, 1 mM DTT, 1 mM EDTA, 20% glycerol, 0.5 mg/ml lysozyme, 10 mM MgCl2, 15 ug/ml deoxyribonuclease I, and Complete TM protease inhibitor tablets (Roche). After addition of the lysis buffer, frozen cell pellets were resuspended using a tissue homogenizer. To reduce the viscosity of the sample, aliquots of the lysate were sonicated on ice using a microtip attached to a Branson sonicator. The sonicated lysate was centrifuged at 100,000×g for 1 hr at 4° C. and filtered through a 0.2 μm filter unit (Corning).
The protein was purified using three sequential chromatography steps: Heparin sepharose CL-6B, polyU sepharose 4B, and Hitrap SP sepharose (Pharmacia). The chromatography buffers were identical to the lysis buffer but contained no lysozyme, deoxyribonuclease I, MgCl2 or protease inhibitor and the NaCl concentration of the buffer was adjusted according to the requirements for charging the protein onto the column. Each column was eluted with a NaCl gradient which varied in length from 5-50 column volumes depending on the column type. After the final chromatography step, the resulting purity of the enzyme is >90% based on SDS-PAGE analysis. The enzyme was aliquoted and stored at −80° C.
Standard HCV NS5B RdRp enzyme assay. HCV RdRp genotype 1b assays were run in a final volume of 60 μl in 96 well plates (Costar 3912). The assay buffer is composed of 20 mM Hepes, pH 7.5, 2.5 mM KCl, 2.5 mM MgCl2, 1 mM DTT, 1.6 U RNAse inhibitor (Promega N2515), 0.1 mg/ml BSA (Promega R3961), and 2% glycerol. All compounds were serially diluted (3-fold) in DMSO and diluted further in water such that the final concentration of DMSO in the assay was 2%. HCV RdRp genotype 1b enzyme was used at a final concentration of 28 nM. A polyA template was used at 6 nM, and a biotinylated oligo-dT12 primer was used at 180 nM final concentration. Template was obtained commercially (Amersham 27-4110). Biotinylated primer was prepared by Sigma Genosys. 3H-UTP was used at 0.6 μCi (0.29 μM total UTP). Reactions were initiated by the addition of enzyme, incubated at 30° C. for 60 min, and stopped by adding 25 μl of 50 mM EDTA containing SPA beads (4 μg/μl, Amersham RPNQ 0007). Plates were read on a Packard Top Count NXT after >1 hr incubation at room temperature.
Modified HCV NS5B RdRp enzyme assay. A modified enzyme assay was performed essentially as described for the standard enzyme assay except for the following: The biotinylated oligo dTl2 primer was precaptured on streptavidin-coated SPA beads by mixing primer and beads in assay buffer and incubating at room temperature for one hour. Unbound primer was removed after centrifugation. The primer-bound beads were resuspended in 20 mM Hepes buffer, pH 7.5 and used in the assay at final concentrations of 20 nM primer and […] beads. Order of addition in the assay: enzyme (14 nM) was added to diluted compound followed by the addition of a mixture of template (0.2 nM), 3H-UTP (0.6 μCi, 0.29 μM), and primer-bound beads, to initiate the reaction; concentrations given are final. Reactions were allowed to proceed for 4 hours at 30° C.
IC50 values for compounds were determined using seven different. […]

Another test has as its system HCV replicon cells. Kind of test: HCV FRET assay in HCV replicon cells. Format: cell-based. As to conditions: Hepatitis C virus. From the text:
FRET Assay Preparation. To perform the HCV FRET screening assay, 96-well cell culture plates were used. The FRET peptide (Anaspec, Inc.) (Taliani et al., Anal. Biochem. 1996, 240, 60-67) contains a fluorescence donor, EDANS, near one end of the peptide and an acceptor, DABCYL, near the other end. The fluorescence of the peptide is quenched by […] resonance energy transfer (RET) between the donor and the acceptor, but as the NS3 protease cleaves the peptide the products are released from RET quenching and the fluorescence of the donor becomes apparent. The assay reagent was made as follows: 5× cell Luciferase cell culture lysis reagent from Promega (#E153A) diluted to 1× with dH2O, NaCl added to 150 mM final, the FRET peptide diluted to 20 uM final from a 2 mM stock.
To prepare plates, HCV replicon cells, with or without a Renilla luciferase reporter gene, were trypsinized and placed into each well of a 96-well plate with titrated test compounds added in columns 3 through 12; columns 1 and 2 contained a control compound (HCV protease inhibitor), and the bottom row contained cells without compound. The plates were then placed in a CO2 incubator at 37° C.
Assays. Subsequent to addition of the test compounds described above (FRET Assay Preparation), at various times the plate was removed and Alamar blue solution (Trek Diagnostics, #00-100) was added per well as a measure of cellular toxicity. After reading in a Cytoflour 4000 instrument (PE Biosystems), plates were rinsed with PBS and then used for FRET assay by the addition of 30 ul of the FRET peptide assay reagent described above (FRET Assay Preparation) per well. The plate was then placed into the Cytoflour 4000 instrument which had been set to 340 excite/490 emission, automatic mode for 20 cycles and the plate read in a kinetic mode. Typically, the signal to noise using an endpoint analysis after the reads was at least three-fold. Alternatively, after Alamar blue reading, plates were rinsed with PBS, 50 ul of DMEM (high glucose) without phenol red was added and plates were then used for luciferase assay using the Promega Dual-Glo Luciferase Assay System.
Compound analysis was determined by quantification of the relative HCV replicon inhibition and the relative cytotoxicity values. To calculate cytoxicity values, the average Alamar Blue fluorescence signals from the control wells were set as 100% non-toxic. The individual signals in each of the compound test wells were then divided by the average control signal and multiplied by 100% to determine […]. To calculate the HCV replicon inhibition values, an average background value was obtained from the two wells containing the highest amount of HCV protease inhibitor at the end of the assay period. These numbers were similar to those obtained from naïve Huh-7 cells.
The background numbers were then subtracted from the average signal obtained from the control wells and this number was used as 100% activity. The individual signals in each of the compound test wells were then divided by the averaged control values after background subtraction and multiplied by 100% to determine percent activity. EC50 values for a protease inhibitor titration were calculated as the concentration which caused a 50% reduction in FRET or luciferase activity. The two numbers generated for the compound plate, percent cytoxicity and percent activity were used to determine compounds of interest for further analysis.
On the technique in general: A replicon is a self-replicating genome or part of one, used to study replication in cells.

T1 sequence (Q9WMX2 2420-2992): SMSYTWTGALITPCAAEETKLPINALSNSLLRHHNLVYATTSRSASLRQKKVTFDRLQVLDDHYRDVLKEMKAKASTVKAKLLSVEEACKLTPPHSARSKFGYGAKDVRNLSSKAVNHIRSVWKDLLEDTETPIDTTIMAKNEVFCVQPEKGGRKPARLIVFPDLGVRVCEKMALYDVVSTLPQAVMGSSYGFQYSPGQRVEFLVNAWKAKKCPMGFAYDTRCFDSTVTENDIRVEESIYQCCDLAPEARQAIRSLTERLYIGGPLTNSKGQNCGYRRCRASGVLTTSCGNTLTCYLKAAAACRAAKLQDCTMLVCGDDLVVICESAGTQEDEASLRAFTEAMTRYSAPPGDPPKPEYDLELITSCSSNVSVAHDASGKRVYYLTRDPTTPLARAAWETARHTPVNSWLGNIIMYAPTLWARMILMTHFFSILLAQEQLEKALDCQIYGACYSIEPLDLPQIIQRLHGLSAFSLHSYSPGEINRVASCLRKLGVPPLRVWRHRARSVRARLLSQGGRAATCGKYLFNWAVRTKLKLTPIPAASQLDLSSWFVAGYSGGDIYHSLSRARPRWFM

The term IC50 denotes the point on the concentration scale where inhibition reaches its midpoint. Low readings indicate higher potency, high ones lower potency. For orientation: EC50 means the concentration needed to bring the measured effect to its halfway point. Read a low EC50 as higher potency in that assay. With `COc1ccc2c(c1)C1CN(C(C)=O)CC1(C(=O)N1C[C@@H](C)O[C@@H](C)C1)Cn1c-2c(C2CCCCC2)c2ccc(C(=O)NS(=O)(=O)N(C)C)cc21` (mixture of isomers) [Example 4, rac-(3aR,14bR)-2-Acetyl-10-cyclohexyl-3a-(((2S,6R)-2,6-dimethyl-4-morpholinyl)carbonyl)-N-(dimethylsulfamoyl)-13-methoxy-1,2,3,3a,4,14b-hexahydroindolo[2,1-a]pyrrolo[3,4-d][2]benzazepine-7-carboxamide], the IC50 on HCV NS5B (reported as class) lay within 20 to 500 nM. This molecule also displayed an EC50 in the test with HCV replicon cells (reported as class) of 20 to 500 nM.

In the case of `COc1ccc2c(c1)C1CNCC1(C(=O)N(C)C)Cn1c-2c(C2CCCCC2)c2ccc(C(=O)NS(=O)(=O)N(C)C)cc21` (racemic) [Example 7, rac-(3aR,14bR)-10-cyclohexyl-N^7-(dimethylsulfamoyl)-13-methoxy-N^3a,N^3a-dimethyl-1,2,3,14b-tetrahydroindolo[2,1-a]pyrrolo[3,4-d][2]benzazepine-3a,7(4H)-dicarboxamide], at HCV NS5B, half-maximal inhibition (IC50) was put at 41 nM. The response in the test on HCV replicon cells was half-maximal at 22 nM (EC50).

`COc1ccc2c(c1)C1CN(C(C)CN(C)C)CC1(C(=O)N(C)C)Cn1c-2c(C2CCCCC2)c2ccc(C(=O)NS(=O)(=O)N(C)C)cc21` (racemic) [Example 17a, rac-(3aR,14bR)-10-cyclohexyl-2-(2-(dimethylamino)-1R-methylethyl)-N^7-(dimethylsulfamoyl)-13-methoxy-N^3a,N^3a-dimethyl-1,2,3,14b-tetrahydroindolo[2,1-a]pyrrolo[3,4-d][2]benzazepine-3a,7(4H)-dicarboxamide]: at HCV NS5B (reported as class), the IC50 is 20 to 500 nM. The molecule further gave an EC50 with HCV replicon cells (reported as class) of 20 to 500 nM.

`COc1ccc2c(c1)C1CN(C(C)CN(C)C)CC1(C(=O)N1C[C@@H](C)O[C@@H](C)C1)Cn1c-2c(C2CCCCC2)c2ccc(C(=O)NS(=O)(=O)N(C)C)cc21` (mixture of isomers) [Example 12, rac-(3aR,14bR)-10-cyclohexyl-2-(2-(dimethylamino)-1-methylethyl)-3a-(((2S,6R)-2,6-dimethyl-4-morpholinyl)carbonyl)-N-(dimethylsulfamoyl)-13-methoxy-1,2,3,3a,4,14b-hexahydroindolo[2,1-a]pyrrolo[3,4-d][2]benzazepine-7-carboxamide] had an IC50 at HCV NS5B (reported as class) of 20 to 500 nM. Also, the EC50 with HCV replicon cells (reported as class) fell in the range of 20 to 500 nM.

On to `COc1ccc2c(c1)C1CN(Cc3cncn3C)CC1(C(=O)N(C)C)Cn1c-2c(C2CCCCC2)c2ccc(C(=O)NS(=O)(=O)N(C)C)cc21` (racemic) [Example 18, rac-(3aR,14bR)-10-Cyclohexyl-N^7-(dimethylsulfamoyl)-13-methoxy-N^3a,N^3a-dimethyl-2-((1-methyl-1H-imidazol-5-yl)methyl)-1,2,3,14b-tetrahydroindolo[2,1-a]pyrrolo[3,4-d][2]benzazepine-3a,7(4H)-dicarboxamide], for which, at HCV NS5B (reported as class), the IC50 fell in the range of 20 to 500 nM. Moreover, in the test on HCV replicon cells (reported as class), the EC50 was in the range of 20 to 500 nM.

In the case of `COc1ccc2c(c1)C1CN(C(=O)CN(C)C)CC1(C(=O)N(C)C)Cn1c-2c(C2CCCCC2)c2ccc(C(=O)NS(=O)(=O)N(C)C)cc21` (racemic) [Example 14, rac-(3aR,14bR)-10-Cyclohexyl-2-(N,N-dimethylglycyl)-N^7-(dimethylsulfamoyl)-13-methoxy-N^3a,N^3a-dimethyl-1,2,3,14b-tetrahydroindolo[2,1-a]pyrrolo[3,4-d][2]benzazepine-3a,7(4H)-dicarboxamide], at HCV NS5B, the IC50 worked out at 51 nM. Moreover, the EC50 in the test with HCV replicon cells was 47 nM.

On to `COc1ccc2c(c1)C1CN(C(C)C)CC1(C(=O)N1C[C@@H](C)O[C@@H](C)C1)Cn1c-2c(C2CCCCC2)c2ccc(C(=O)NS(=O)(=O)N(C)C)cc21` (mixture of isomers) [Example 5, rac-(3aR,14bR)-10-Cyclohexyl-3a-(((2S,6R)-2,6-dimethyl-4-morpholinyl)carbonyl)-N-(dimethylsulfamoyl)-2-isopropyl-13-methoxy-1,2,3,3a,4,14b-hexahydroindolo[2,1-a]pyrrolo[3,4-d][2]benzazepine-7-carboxamide], for which the IC50 on HCV NS5B was found to be 200 nM. In the test with HCV replicon cells, this molecule showed an EC50 of 120 nM.

On HCV NS5B (reported as class), `COc1ccc2c(c1)C1CN(C(=O)C(=O)N(C)C)CC1(C(=O)N(C)C)Cn1c-2c(C2CCCCC2)c2ccc(C(=O)NS(=O)(=O)N(C)C)cc21` (racemic) [Example 15, rac-(3aR,14bR)-10-Cyclohexyl-2-((dimethylamino)(oxo)acetyl)-N^7-(dimethylsulfamoyl)-13-methoxy-N^3a,N^3a-dimethyl-1,2,3,14b-tetrahydroindolo[2,1-a]pyrrolo[3,4-d][2]benzazepine-3a,7(4H)-dicarboxamide] gave an IC50 of 20 to 500 nM. In the test with HCV replicon cells (reported as class), the EC50 was 20 to 500 nM.

Turning to `COc1ccc2c(c1)C1CN(C(C)=O)CC1(C(=O)N(C)C)Cn1c-2c(C2CCCCC2)c2ccc(C(=O)NS(=O)(=O)N(C)C)cc21` (racemic) [Example 9, rac-(3aR,14bR)-2-acetyl-10-cyclohexyl-N^7-(dimethylsulfamoyl)-13-methoxy-N^3a,N^3a-dimethyl-1,2,3,14b-tetrahydroindolo[2,1-a]pyrrolo[3,4-d][2]benzazepine-3a,7(4H)-dicarboxamide], the IC50 at HCV NS5B (reported as class) lay within 20 to 500 nM. The EC50 with HCV replicon cells (reported as class) was 20 to 500 nM.
